These compounds were tested against Mtb ThyX (Mycobacterium tuberculosis, UniProt P9WG57) (assay: M. tuberculosis ThyX NADPH oxidase assay). Conditions: 50 μM, screening hits (Figure 1); read-out: % inhibition (ThyX).
Format: biochemical

Sequence of Mtb ThyX (P9WG57 whole entry): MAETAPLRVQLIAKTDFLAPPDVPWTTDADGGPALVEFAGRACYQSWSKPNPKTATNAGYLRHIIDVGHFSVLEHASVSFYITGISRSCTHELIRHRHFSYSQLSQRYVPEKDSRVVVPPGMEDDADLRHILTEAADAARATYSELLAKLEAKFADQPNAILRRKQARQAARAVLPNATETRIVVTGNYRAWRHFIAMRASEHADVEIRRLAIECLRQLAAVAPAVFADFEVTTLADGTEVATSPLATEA

Row | Compound | inhibition at 50 µM
1 | Cc1ccn2c(c1)nc1c(-c3ccc(OC(F)(F)F)cc3)nc(C(F)(F)F)nc12 [Compound 5] | 13.2%
2 | OB(O)c1ccc(Sc2nc(C(F)(F)F)nc3c2nc2ccccn23)cc1 [Compound 6] | 17.1%

Same assay, conditions: 200 μM compound, NADPH oxidase assay, 50 µM FAD

Row | Compound | Inhibition % (Mtb ThyX)
3 | 3-(p-Fluorophenyl)-8-hept-1-ynyl-1H-purino [9,8-a]pyridine-2,4-dione [Compound 20d] | 0%
4 | 3-(p-Fluorophenyl)-8-hex-1-ynyl-1H-purino [9,8-a]pyridine-2,4-dione [Compound 20c] | 18.6%
5 | 1-[[p-(Dimethoxyphosphorylmethyl)phenyl]methyl]-3-(4-fluorophenyl)purino [9,8-a]pyridine-2,4-dione [Compound 13f] | 5.6%

Same assay, conditions: 200 μM compound, NADPH oxidase assay, 50 µM FAD; read-out: Inhibition % (Mtb ThyX)

Row | Compound | inhibition at 200 µM
6 | CCCCCC#Cc1ccc2nc3c(=O)n(-c4ccc(F)cc4)c(=O)[nH]c3n2c1 [Compound 21d, 3-(p-Fluorophenyl)-8-hept-1-ynyl-1H-purino [9,8-a]pyridine-2,4-dione] | 32.5%
7 | O=c1[nH]c2c(nc3ccccn32)c(=O)n1-c1ccc(C(F)(F)F)cc1 [Compound 9e, 3-(4-(Trifluoromethyl)phenyl)pyrido [1,2-e]purine-2,4(1H,3H)-dione] | 31.7%
8 | Cc1ccc2nc3c(=O)n(-c4ccc(F)cc4)c(=O)[nH]c3n2c1 [Compound 18b, 3-(p-Fluorophenyl)-8-methylpyrido [1,2-e]purine-2,4(1H,3H)-dione] | 13.2%
9 | O=c1c2nc3ccccn3c2n(Cc2ccccc2)c(=O)n1-c1ccc(F)cc1 [Compound 13a, 1-Benzyl-3-(4-fluorophenyl)purino [9,8-a]pyridine-2,4-dione] | 23.2%
10 | O=c1[nH]c2c(nc3cc(-c4ccccc4)ccn32)c(=O)n1-c1ccc(F)cc1 [Compound 22a, 3-(p-Fluorophenyl)-7-phenyl-1H-purino [9,8-a]pyridine-2,4-dione] | 20.7%
11 | Cc1ccn2c(c1)nc1c(=O)n(-c3ccc(F)cc3)c(=O)[nH]c12 [Compound 18a, 3-(p-Fluorophenyl)-7-methylpyrido [1,2-e]purine-2,4(1H,3H)-dione] | 45.8%
12 | COc1ccc(-n2c(=O)[nH]c3c(nc4ccccn43)c2=O)cc1 [Compound 9f, 3-(p-Methoxyphenyl)pyrido [1,2-e]purine-2,4(1H,3H)-dione] | 8.1%
13 | O=c1[nH]c2c(nc3ccc(-c4ccc(F)cc4)cn32)c(=O)n1-c1ccc(F)cc1 [Compound 23e, 3,8-Bis(p-Fluorophenyl)-1H-purino [9,8-a]pyridine-2,4-dione] | 43.1%
14 | O=c1[nH]c2c(nc3ccccn32)c(=O)n1Cc1ccc(F)cc1 [Compound 10b, 3-(p-Fluorobenzyl)pyrido [1,2-e]purine-2,4(1H,3H)-dione] | 21.2%
15 | O=c1c2nc3ccccn3c2[nH]c(=S)n1-c1ccc(F)cc1 [Compound 11, 3-(4-Fluorophenyl)-2-thioxo-2,3-dihydropyrido [1,2-e]purin-4(1H)-one] | 19.8%
16 | O=c1c2nc3ccccn3c2[nH]c(=S)n1Cc1ccccc1 [Compound 12, 3-Benzyl-2-thioxo-2,3-dihydropyrido [1,2-e]purin-4(1H)-one] | 0%
17 | Cc1ccc(Cn2c(=O)[nH]c3c(nc4ccccn43)c2=O)cc1 [Compound 10d, 3-(p-Methylbenzyl)pyrido [1,2-e]purine-2,4(1H,3H)-dione] | 20.2%
18 | O=c1[nH]c2c(nc3cc(-c4ccc(OC(F)(F)F)cc4)ccn32)c(=O)n1-c1ccc(F)cc1 [Compound 22d, 3-(p-fluorophenyl)-7-[p-(trifluoromethoxy)phenyl]-1H-purino [9,8-a]pyridine-2,4-dione] | ≤ 28%
19 | O=c1[nH]c2c(nc3ccccn32)c(=O)n1-c1ccc(F)cc1F [Compound 9i, 3-(2,4-Difluorophenyl)pyrido [1,2-e]purine-2,4(1H,3H)-dione] | 6.6%
20 | CCCCCCNC(=O)NCC#Cc1ccc2nc3c(=O)n(-c4ccc(F)cc4)c(=O)[nH]c3n2c1 [Compound 21g, 1-[3-[3-(p-Fluorophenyl)-2,4-dioxo-1H-purino [9,8-a]pyridin-8-yl]prop-2-ynyl]-3-hexyl-urea] | 28.2%
21 | O=c1[nH]c2c(nc3ccc(C#CCCc4ccccc4)cn32)c(=O)n1-c1ccc(F)cc1 [Compound 21a, 3-(p-Fluorophenyl)-8-(4-phenylbut-1-ynyl)-1H-purino [9,8-a]pyridine-2,4-dione] | 69.1%
22 | O=c1[nH]c2c(nc3ccccn32)c(=O)n1Cc1ccc(C(F)(F)F)cc1 [Compound 10c, 3-(p-(Trifluoromethyl)benzyl)pyrido [1,2-e]purine-2,4(1H,3H)-dione] | 20.7%
23 | CCCCCCCC(=O)NCC#Cc1ccn2c(c1)nc1c(=O)n(-c3ccc(F)cc3)c(=O)[nH]c12 [Compound 20f, N-[3-[3-(p-fluorophenyl)-2,4-dioxo-1H-purino [9,8-a]pyridin-7-yl]prop-2-ynyl]octanamide] | 18.8%
24 | CCCCCCC#Cc1ccc2nc3c(=O)n(-c4ccc(F)cc4)c(=O)[nH]c3n2c1 [Compound 21e, 3-(p-Fluorophenyl)-8-oct-1-ynyl-1H-purino [9,8-a]pyridine-2,4-dione] | 31.7%
25 | CCCCCCNC(=O)NCC#Cc1ccn2c(c1)nc1c(=O)n(-c3ccc(F)cc3)c(=O)[nH]c12 [Compound 20g, 1-[3-[3-(p-Fluorophenyl)-2,4-dioxo-1H-purino [9,8-a]pyridin-7-yl]prop-2-ynyl]-3-hexyl-urea] | 0%

Row | Compound | inhibition at 200 µM
26 | Cc1ccc(-n2c(=O)[nH]c3c(nc4ccccn43)c2=O)cc1C [Compound 9j, 3-(3,4-Dimethylphenyl)pyrido [1,2-e]purine-2,4(1H,3H)-dione] | 19.9%
27 | COC(=O)c1ccc(Cn2c(=O)n(-c3ccc(F)cc3)c(=O)c3nc4ccccn4c32)cc1 [Compound 13e, Methyl 4-[[3-(p-fluorophenyl)-2,4-dioxo-purino [9,8-a]pyridin-1-l]methyl]benzoate] | 44.8%
28 | Cc1ccc(-c2ccn3c(c2)nc2c(=O)n(-c4ccc(F)cc4)c(=O)[nH]c23)cc1 [Compound 22b, 3-(p-Fluorophenyl)-7-(p-tolyl)-1H-purino [9,8-a]pyridine-2,4-dione] | 45.7%
29 | COc1ccc(-c2ccn3c(c2)nc2c(=O)n(-c4ccc(F)cc4)c(=O)[nH]c23)cc1 [Compound 22c, 3-(p-Fluorophenyl)-7-(p-methoxyphenyl)-1H-purino [9,8-a]pyridine-2,4-dione] | ≤ 28%
30 | O=c1[nH]c2c(nc3ccccn32)c(=O)n1Cc1ccccc1 [Compound 10a, 3-(Benzyl)pyrido [1,2-e]purine-2,4(1H,3H)-dione] | 22.3%
31 | Cc1ccc(Cn2c(=O)n(-c3ccc(F)cc3)c(=O)c3nc4ccccn4c32)cc1 [Compound 13b, 3-(p-Fluorophenyl)-1-[(p-methylphenyl)methyl]purino[9,8-a]pyridine-2,4-dione] | 10.9%
32 | O=c1[nH]c2c(nc3ccccn32)c(=O)n1-c1ccc(F)c(F)c1 [Compound 9h, 3-(3,4-Difluorophenyl)pyrido [1,2-e]purine-2,4(1H,3H)-dione] | 22.7%
33 | O=c1[nH]c2c(nc3cc(Br)ccn32)c(=O)n1-c1ccc(F)cc1 [Compound 19a, 7-Bromo-3-(p-fluorophenyl)pyrido [1,2-e]purine-2,4(1H,3H)-dione] | 8.8%
34 | O=c1[nH]c2c(nc3cc(-c4ccc(F)cc4)ccn32)c(=O)n1-c1ccc(F)cc1 [Compound 22e, 3,7-Bis(p-fluorophenyl)-1H-purino [9,8-a]pyridine-2,4-dione] | ≤ 28%
35 | CCCCC#Cc1ccc2nc3c(=O)n(-c4ccc(F)cc4)c(=O)[nH]c3n2c1 [Compound 21c, 3-(p-Fluorophenyl)-8-hex-1-ynyl-1H-purino [9,8-a]pyridine-2,4-dione] | 0%
36 | CCCc1ccc(C#Cc2ccn3c(c2)nc2c(=O)n(-c4ccc(F)cc4)c(=O)[nH]c23)cc1 [Compound 20b, 3-(p-Fluorophenyl)-7-[2-(4-propylphenyl)ethynyl]-1H-purino [9,8-a]pyridine-2,4-dione] | 0%
37 | CCCCCCC#Cc1ccn2c(c1)nc1c(=O)n(-c3ccc(F)cc3)c(=O)[nH]c12 [Compound 20e, 3-(p-Fluorophenyl)-7-oct-1-ynyl-1H-purino [9,8-a]pyridine-2,4-dione] | 45.1%
38 | COc1ccc(-c2ccc3nc4c(=O)n(-c5ccc(F)cc5)c(=O)[nH]c4n3c2)cc1 [Compound 23c, 3-(p-Fluorophenyl)-8-(p-methoxyphenyl)-1H-purino [9,8-a]pyridine-2,4-dione] | 35.4%
39 | O=c1[nH]c2c(nc3ccccn32)c(=O)n1-c1cccc(F)c1 [Compound 9g, 3-(3-Fluorophenyl)pyrido [1,2-e]purine-2,4(1H,3H)-dione] | 12.8%
40 | Cc1ccc(-c2ccc3nc4c(=O)n(-c5ccc(F)cc5)c(=O)[nH]c4n3c2)cc1 [Compound 23b, 3-(p-Fluorophenyl)-8-(p-tolyl)-1H-purino [9,8-a]pyridine-2,4-dione] | 44.4%
41 | O=c1[nH]c2c(nc3cc(C#CCCc4ccccc4)ccn32)c(=O)n1-c1ccc(F)cc1 [Compound 20a, 3-(p-Fluorophenyl)-7-(4-phenylbut-1-ynyl)-1H-purino [9,8-a]pyridine-2,4-dione] | 32%
42 | O=c1[nH]c2c(nc3ccccn32)c(=O)n1-c1ccc(Br)cc1 [Compound 9c, 3-(4-Bromophenyl)pyrido [1,2-e]purine-2,4(1H,3H)-dione] | 52.2%
43 | O=c1[nH]c2c(nc3ccc(-c4ccc(OC(F)(F)F)cc4)cn32)c(=O)n1-c1ccc(F)cc1 [Compound 23d, 3-(p-Fluorophenyl)-8-[p-(trifluoromethoxy)phenyl]-1H-purino [9,8-a]pyridine-2,4-dione] | 29.4%
44 | N#Cc1ccc(Cn2c(=O)n(-c3ccc(F)cc3)c(=O)c3nc4ccccn4c32)cc1 [Compound 13c, 4-[[3-(p-Fluorophenyl)-2,4-dioxo-purino[9,8-a]pyridin-1-yl]methyl]benzonitrile] | 26.5%

Same assay, conditions: 200 µM, screening of in-house compound libraries; read-out: ThyX inhibitory effect

Row | Compound | inhibition at 200 µM
45 | Cc1ccn2c(c1)nc1c(-c3ccc(OC(F)(F)F)cc3)nc(C(F)(F)F)nc12 [Compound 5] | 23.1%
46 | OB(O)c1ccc(Sc2nc(C(F)(F)F)nc3c2nc2ccccn23)cc1 [Compound 6] | 33.2%

— PMC9571937, “Synthesis and Structure–Activity Relationship Studies of Pyrido [1,2-e]Purine-2,4(1H,3H)-Dione Derivatives Targeting Flavin-Dependent Thymidylate Synthase in Mycobacterium tuberculosis” (Molecules, 2022)
